# Measured values from PubChem BioAssay (NCI).
#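 Tested at 5 concentrations; 48 h exposure; 96-well plates; endpoints linearly interpolated, else capped at highest concentration. TGI: concentration producing complete growth inhibition.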
# How the values were obtained:
# Test in all cases: DTP human tumour cell line panel, 48 h
# [1] = test system: LOX IMVI melanoma
# [2] = test system: UACC-62 melanoma
# [3] = test system: HL-60(TB) leukemia
# [4] = test system: NCI-H23 lung
# [5] = test system: SNB-75 CNS
# [6] = test system: 786-0 renal
# [7] = test system: TK-10 renal
# [8] = test system: UACC-257 melanoma
# [9] = test system: SF-295 CNS
# [10] = test system: MOLT-4 leukemia
# [11] = test system: CAKI-1 renal
# [12] = test system: CCRF-CEM leukemia
# [13] = test system: SK-MEL-28 melanoma
# [14] = test system: ACHN renal
# [15] = test system: MDA-MB-231 breast
# [16] = test system: SR leukemia
# [17] = test system: HOP-92 NSCLC
# [18] = test system: NCI-H226 lung
# [19] = test system: HOP-62 NSCLC
# [20] = test system: UO-31 renal
# [21] = test system: OVCAR-5 ovarian
# [22] = test system: MDA-MB-435
# [23] = test system: OVCAR-3 ovarian
# [24] = test system: NCI-H522 lung
# [25] = test system: HS 578T breast
# [26] = test system: T-47D breast
# [27] = test system: HCT-15 colon
# [28] = test system: EKVX NSCLC
# [29] = test system: HT29 colon
# [30] = test system: DU-145 prostate
# [31] = test system: MDA-N
# [32] = test system: NCI/ADR-RES ovarian
# [33] = test system: IGROV1 ovarian
# [34] = test system: COLO 205 colon
# [35] = test system: RPMI-8226 leukemia
# [36] = test system: RXF 393 renal
# [37] = test system: OVCAR-4 ovarian
# [38] = test system: MCF7 breast
# [39] = test system: SF-539 CNS
# [40] = test system: NCI-H460 lung
# [41] = test system: SK-MEL-2 melanoma
# [42] = test system: SW-620 colon
# [43] = test system: M14 melanoma
# [44] = test system: SF-268 CNS
# [45] = test system: OVCAR-8 ovarian
# [46] = test system: MALME-3M melanoma
# [47] = test system: KM12 colon
# [48] = test system: SNB-19 CNS
# [49] = test system: SK-OV-3 ovarian
# [50] = test system: SN12C renal
# [51] = test system: K-562 leukemia
# [52] = test system: A498 renal
# [53] = test system: SK-MEL-5 melanoma
# [54] = test system: PC-3 prostate
# [55] = test system: BT-549 breast
# [56] = test system: A549 NSCLC
# [57] = test system: U251 CNS
# [58] = test system: HCT-116 colon
structure (smiles),measurement,setting,value
Cc1cc(C)c(S(=O)(=O)N(CCCN)OCCCON(CCCN)S(=O)(=O)c2c(C)cc(C)cc2C)c(C)c1,TGI,[1],3.11 µM
same,TGI,[2],6.09 µM
same,TGI,[3],5.64 µM
same,TGI,[4],4.66 µM
same,TGI,[5],3.29 µM
same,TGI,[6],5.86 µM
same,TGI,[7],16.5 µM
same,TGI,[8],3.44 µM
same,TGI,[9],21.4 µM
same,TGI,[10],10.7 µM
same,TGI,[11],29.3 µM
same,TGI,[12],16.8 µM
same,TGI,[13],3.94 µM
same,TGI,[14],28.9 µM
same,TGI,[15],3.31 µM
same,TGI,[16],7.83 µM
same,TGI,[17],5.27 µM
same,TGI,[18],7.66 µM
same,TGI,[19],4.02 µM
same,TGI,[20],30.4 µM
same,TGI,[21],5.86 µM
same,TGI,[22],4.21 µM
same,TGI,[23],4.26 µM
same,TGI,[24],2.88 µM
same,TGI,[25],3.16 µM
same,TGI,[26],3.36 µM
same,TGI,[27],34.8 µM
same,TGI,[28],19.4 µM
same,TGI,[29],3.22 µM
same,TGI,[30],3.15 µM
same,TGI,[31],3.51 µM
same,TGI,[32],36.4 µM
same,TGI,[33],3.86 µM
same,TGI,[34],3.5 µM
same,TGI,[35],6.55 µM
same,TGI,[36],15.7 µM
same,TGI,[37],5.22 µM
same,TGI,[38],3.41 µM
same,TGI,[39],3.77 µM
same,TGI,[40],3.18 µM
same,TGI,[41],3.29 µM
same,TGI,[42],6.45 µM
same,TGI,[43],3.21 µM
same,TGI,[44],2.8 µM
same,TGI,[45],11 µM
same,TGI,[46],2.61 µM
same,TGI,[47],3.79 µM
same,TGI,[48],3.17 µM
same,TGI,[49],3.58 µM
same,TGI,[50],13.6 µM
same,TGI,[51],> 22.5 µM
same,TGI,[52],10.7 µM
same,TGI,[53],> 42.8 µM
same,TGI,[54],3.45 µM
same,TGI,[55],8.64 µM
same,TGI,[56],3.3 µM
same,TGI,[57],3.08 µM
same,TGI,[58],3.17 µM
